Like-named read-outs stand apart in the source and are kept apart here.
Assays:
[1] = tested on: NCI-H358 (K-Ras G12C); test: CellTiter-Glo cell viability assay, NCI-H358; type: cell-based, human; settings: Homo sapiens, NCI-H358, 120 h, NCI-H358, 5-day treatment; class symbols; read-out: Additional H358 Cell Viability assay data (K-Ras G12C, IC50)
Procedure, shortened: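 Viability measured by CellTiter-Glo luminescence on day 5 following direct addition of compound to plated cells. Values expressed as percent of mean DMSO signal; curves fitted with a four-parameter logistic model.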

[2] = molecular target: KRAS G12S (Homo sapiens (Human), UniProt P01116+P62937, G12S); test: Ras-Raf (BRAF RBD) disruption / FRET / MOA assay, KRAS G12S; type: biochemical; settings: Ras-Raf disruption/FRET/MOA assay; class symbols; read-out: KRAS G12S FRET data IC50
Procedure, shortened: (§1)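 Compound-driven ternary complex of nucleotide-loaded Ras with cyclophilin A, disrupting BRAF RBD binding. 10-point 3-fold dilution from 30 μM final, 3 h at 25° C, then anti-His Eu-W1024 (10 nM) and anti-GST allophycocyanin (50 nM) for 1.5 h. IC50 from TR-FRET ratio decrease versus DMSO.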

[3] = molecular target: KRAS G12D (Homo sapiens (Human), UniProt P01116+P62937, G12D); test: Ras-Raf (BRAF RBD) disruption / FRET / MOA assay, KRAS G12D; type: biochemical; settings: Ras-Raf disruption/FRET/MOA assay; class symbols; read-out: KRAS G12D FRET data IC50
Procedure, shortened: as §1

[4] = molecular target: KRAS G12V (Homo sapiens (Human), UniProt P01116+P62937, G12V); test: Ras-Raf (BRAF RBD) disruption / FRET / MOA assay, KRAS G12V; type: biochemical; settings: read-out: IC50* KRAS G12V FRET data
Procedure, shortened: as §1

[5] = molecular target: KRAS G13D (Homo sapiens (Human), UniProt P01116+P62937, G13D); test: Ras-Raf (BRAF RBD) disruption / FRET / MOA assay, KRAS G13D; type: biochemical
Procedure, shortened: as §1

[6] = molecular target: NRAS Q61K (Homo sapiens (Human), UniProt P01111+P62937, Q61K); test: Ras-Raf (BRAF RBD) disruption / FRET / MOA assay, NRAS Q61K; type: biochemical; settings: NRAS Q61K; Ras-Raf disruption/FRET/MOA assay; read-out: IC50* NRAS Q61K FRET data
Procedure, shortened: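 Compounds (30 μM top final, 10-point 3-fold dilutions) incubated 3 h at 25° C with nucleotide-loaded Ras, cyclophilin A and BRAF RBD. Detection with 10 nM anti-His Eu-W1024 and 50 nM anti-GST allophycocyanin over another 1.5 h. Lowered TR-FRET ratio relative to DMSO wells gives IC50.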

[7] = read-out: IC50* KRAS G13D FRET data

KRAS G12V, sequence (P01116-2 other isoform, or with tags, fused parts or gaps G12V): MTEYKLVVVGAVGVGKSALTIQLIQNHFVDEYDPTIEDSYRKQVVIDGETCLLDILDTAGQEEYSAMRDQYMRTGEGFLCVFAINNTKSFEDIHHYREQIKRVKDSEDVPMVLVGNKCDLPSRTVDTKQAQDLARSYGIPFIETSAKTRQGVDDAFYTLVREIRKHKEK
KRAS G12V, sequence (P62937 whole entry): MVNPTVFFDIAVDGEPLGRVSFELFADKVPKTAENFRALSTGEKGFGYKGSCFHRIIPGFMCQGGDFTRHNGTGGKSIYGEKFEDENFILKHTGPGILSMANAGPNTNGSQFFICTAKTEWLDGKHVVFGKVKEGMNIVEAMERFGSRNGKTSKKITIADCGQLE
KRAS G13D, sequence (P01116-2 other isoform, or with tags, fused parts or gaps G13D): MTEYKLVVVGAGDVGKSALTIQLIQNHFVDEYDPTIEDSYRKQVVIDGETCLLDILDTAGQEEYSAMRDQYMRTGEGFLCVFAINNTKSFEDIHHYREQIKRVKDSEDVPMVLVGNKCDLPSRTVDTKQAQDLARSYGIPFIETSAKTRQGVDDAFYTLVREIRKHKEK
KRAS G13D, sequence (P62937 whole entry): as the sequence (P62937 whole entry) above
KRAS G12S, sequence (P01116-2 other isoform, or with tags, fused parts or gaps G12S): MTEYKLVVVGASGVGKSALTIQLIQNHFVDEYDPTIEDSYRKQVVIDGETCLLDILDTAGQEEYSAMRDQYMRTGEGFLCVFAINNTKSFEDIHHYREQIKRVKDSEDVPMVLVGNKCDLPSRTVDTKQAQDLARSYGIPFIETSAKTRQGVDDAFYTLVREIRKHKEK
KRAS G12S, sequence (P62937 whole entry): as the sequence (P62937 whole entry) above
KRAS G12D, sequence (P01116-2 other isoform, or with tags, fused parts or gaps G12D): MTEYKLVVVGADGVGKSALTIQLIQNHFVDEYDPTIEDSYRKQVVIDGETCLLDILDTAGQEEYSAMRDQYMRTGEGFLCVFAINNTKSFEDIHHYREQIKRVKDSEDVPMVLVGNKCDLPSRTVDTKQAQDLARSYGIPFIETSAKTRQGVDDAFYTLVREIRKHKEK
KRAS G12D, sequence (P62937 whole entry): as the sequence (P62937 whole entry) above
NRAS Q61K, sequence (P01111 whole entry Q61K): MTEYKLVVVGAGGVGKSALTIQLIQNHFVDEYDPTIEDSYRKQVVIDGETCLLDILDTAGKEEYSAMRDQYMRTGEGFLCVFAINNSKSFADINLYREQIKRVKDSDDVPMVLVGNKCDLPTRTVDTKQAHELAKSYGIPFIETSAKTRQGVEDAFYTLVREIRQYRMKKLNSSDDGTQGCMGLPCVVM
NRAS Q61K, sequence (P62937 whole entry): as the sequence (P62937 whole entry) above

Row | Structure (SMILES) | IC50 [1] | IC50 [2] | IC50 [3] | IC50 [4] | IC50 [5, 7] | IC50 [6] | IC50 ([5]; IC50* KRAS G13D FRET data)
1 | CO[C@@H](C)c1ncccc1-c1c2c3cc(ccc3n1CC(F)(F)F)-c1cc(CF)cc(c1)C[C@H](NC(=O)[C@@H](COC1CN(C(=O)C#CC(C)(C)N(C)C)C1)C(C)C)C(=O)N1CCC[C@H](N1)C(=O)OCC(C)(C)C2 (atropisomer, axis not shown) [Example A589] | < 0.01 µM | > 10 µM | > 10 µM | > 10 µM | > 10 µM | > 10 µM | 
2 | CO[C@@H](C)c1ncccc1-c1c2c3cc(ccc3n1CC(F)(F)F)-c1nc(ns1)C[C@H](NC(=O)[C@@H](COC1CN(C(=O)C#CC(C)(C)N(C)C)C1)C(C)C)C(=O)N1CCC[C@H](N1)C(=O)OCC(C)(C)C2 (atropisomer, axis not shown) [Example A590, (2R)-2-(((1-(4-(dimethylamino)-4-methylpent-2-ynoyl)azetidin-3-yl)oxy)methyl)-N-((6^3S,4S,Z)-1^2-(2-((S)-1-methoxyethyl)pyridin-3-yl)-10,10-dimethyl-5,7-dioxo-1^1-(2,2,2-trifluoroethyl)-6^1,6^2,6^3,6^4,6^5,6^6-hexahydro-1^1H-8-oxa-2(5,3)-thiadiazola-1(5,3)-indola-6(1,3)-pyridazinacycloundecaphane-4-yl)-3-methylbutanamide] | < 0.01 µM | 1 to 10 µM | > 10 µM | 1 to 10 µM | > 10 µM | 1 to 10 µM | 
3 | C=CC(=O)N1CCO[C@@]2(CCN(C(=O)N(C)[C@H](C(=O)N[C@H]3Cc4nc(cs4)-c4ccc5c(c4)c(c(-c4cccnc4[C@H](C)OC)n5CC(F)(F)F)CC(C)(C)COC(=O)[C@@H]4CCCN(N4)C3=O)C(C)C)C2)C1 (atropisomer, axis not shown) [Example A594] | < 0.01 µM | 0.1 to 1 µM | 0.1 to 1 µM | 0.1 to 1 µM |  | 0.01 to 0.1 µM | 0.1 to 1 µM
4 | C=CC(=O)N1CCO[C@H]2CN(C(=O)N(C)[C@H](C(=O)N[C@H]3Cc4cccc(n4)-c4ccc5c(c4)c(c(-c4cccnc4[C@H](C)OC)n5CC(F)(F)F)CC(C)(C)COC(=O)[C@@H]4CCCN(N4)C3=O)C(C)C)C[C@H]21 (atropisomer, axis not shown) [Example A595] | < 0.01 µM | 1 to 10 µM | 1 to 10 µM | 1 to 10 µM | 1 to 10 µM | 0.1 to 1 µM | 
5 | C=CC(=O)N1CCO[C@H]2CN(C(=O)N(C)[C@H](C(=O)N[C@H]3Cc4cccc(n4)-c4ccc5c(c4)c(c(-c4cccnc4[C@H](C)OC)n5CC)CC(C)(C)COC(=O)[C@@H]4CCCN(N4)C3=O)C(C)C)C[C@H]21 (atropisomer, axis not shown) [Example A597] | < 0.01 µM | 1 to 10 µM | > 10 µM | 1 to 10 µM | 1 to 10 µM | 0.1 to 1 µM | 
6 | C=CC(=O)N1CCO[C@H]2CN(C(=O)N(C)[C@H](C(=O)N[C@H]3Cc4cccc(c4)-c4ccc5c(c4)c(c(-c4cccnc4[C@H](C)OC)n5CC)CC(C)(C)COC(=O)[C@@H]4CCCN(N4)C3=O)C(C)C)C[C@H]21 (atropisomer, axis not shown) [Example A610] | < 0.01 µM | 1 to 10 µM | 1 to 10 µM | 1 to 10 µM | 1 to 10 µM | 0.1 to 1 µM | 
7 | C=CC(=O)N1CC2(CCN2C(=O)N(C)[C@H](C(=O)N[C@H]2Cc3nc(n(C)n3)-c3ccc4c(c3)c(c(-c3cccnc3[C@H](C)OC)n4CC)CC(C)(C)COC(=O)[C@@H]3CCCN(N3)C2=O)C(C)C)C1 (atropisomer, axis not shown) [Example A612] | 0.1 to 1 µM | 0.1 to 1 µM | 0.1 to 1 µM | 0.1 to 1 µM | 0.1 to 1 µM | 0.01 to 0.1 µM | 
8 | CCn1c(-c2cccnc2[C@H](C)OC)c2c3cc(ccc31)N1CCC[C@@H](C[C@H](NC(=O)[C@H](C(C)C)N(C)C(=O)C3(F)CCN(C(=O)C#CC(C)(C)N(C)C)CC3)C(=O)N3CCC[C@H](N3)C(=O)OCC(C)(C)C2)C1 (atropisomer, axis not shown) [Example A615] | < 0.01 µM | > 10 µM | > 10 µM | > 10 µM | > 10 µM | > 10 µM | 
9 | C=CC(=O)N(C)CCC1CCN(C(=O)N(C)[C@H](C(=O)N[C@H]2Cc3nc(cs3)-c3ccc4c(c3)c(c(-c3cccnc3[C@H](C)OC)n4CC)CC(C)(C)COC(=O)[C@@H]3CCCN(N3)C2=O)C(C)C)CC1 (atropisomer, axis not shown) [Example A621] | < 0.01 µM | 0.01 to 0.1 µM | 0.1 to 1 µM | 0.01 to 0.1 µM | 0.1 to 1 µM | 0.01 to 0.1 µM | 
10 | CCn1c(-c2cccnc2[C@H](C)OC)c2c3cc(ccc31)-c1csc(n1)C[C@H](NC(=O)[C@H](C(C)C)N(C)C(=O)N1C[C@H]3CN(C(=O)C#CC(C)(C)N(C)C)CC[C@H]31)C(=O)N1CCC[C@H](N1)C(=O)OCC(C)(C)C2 (atropisomer, axis not shown) [Example A624] | < 0.01 µM | 0.1 to 1 µM | 1 to 10 µM | 0.1 to 1 µM | 0.1 to 1 µM | 0.1 to 1 µM | 
11 | CCn1c(-c2cccnc2[C@H](C)OC)c2c3cc(ccc31)-c1csc(n1)C[C@H](NC(=O)[C@H](F)COC1CN(C(=O)C#CC(C)(C)N(C)C)C1)C(=O)N1CCC[C@H](N1)C(=O)OCC(C)(C)C2 (atropisomer, axis not shown) [Example A627] | < 0.01 µM | > 10 µM | > 10 µM | > 10 µM | > 10 µM | > 10 µM | 
12 | C=C(C)C(=O)N1CC2(CCN(C(=O)N(C)[C@H](C(=O)N[C@H]3Cc4nc(cs4)-c4ccc5c(c4)c(c(-c4cccnc4[C@H](C)OC)n5CC)CC(C)(C)COC(=O)[C@@H]4CCCN(N4)C3=O)C(C)C)CC2)C1 (atropisomer, axis not shown) [Example A651] | 0.01 to 0.1 µM | 0.1 to 1 µM | 0.1 to 1 µM | 0.1 to 1 µM | 0.1 to 1 µM | 0.01 to 0.1 µM | 
13 | C=CC(=O)N(C)C[C@H]1CCN(C(=O)N(C)[C@H](C(=O)N[C@H]2Cc3nc(cs3)-c3ccc4c(c3)c(c(-c3cccnc3[C@H](C)OC)n4CC)CC(C)(C)COC(=O)[C@@H]3CCCN(N3)C2=O)C(C)C)C1 (atropisomer, axis not shown) [Example A653] | 0.01 to 0.1 µM | 0.1 to 1 µM | 0.1 to 1 µM | 0.1 to 1 µM | 0.1 to 1 µM | 0.01 to 0.1 µM | 
14 | C=CC(=O)N(C)C[C@@H]1CCN(C(=O)N(C)[C@H](C(=O)N[C@H]2Cc3nc(cs3)-c3ccc4c(c3)c(c(-c3cccnc3[C@H](C)OC)n4CC)CC(C)(C)COC(=O)[C@@H]3CCCN(N3)C2=O)C(C)C)C1 (atropisomer, axis not shown) [Example A654] | 0.01 to 0.1 µM | 0.1 to 1 µM | 0.1 to 1 µM | 0.1 to 1 µM | 0.1 to 1 µM | 0.01 to 0.1 µM | 
15 | CCn1c(-c2cccnc2[C@H](C)OC)c2c3cc(ccc31)-c1cccc(c1)C[C@H](NC(=O)[C@@H](COC1CN(C(=O)C#CC(C)(C)N(C)CCO)C1)C(C)C)C(=O)N1CCC[C@H](N1)C(=O)OCC(C)(C)C2 (atropisomer, axis not shown) [Example A657] | < 0.01 µM | > 10 µM | > 10 µM | > 10 µM | > 10 µM | > 10 µM | 

Reference: patent US11566007B2, “Ras inhibitors” (Revolution Medicines, Inc., priority 2019, dated 2023)
